The subject of data set [1] is Methicillin-resistant S. aureus (MRSA, ATCC 33591). The experiment in a line: microbe, parasite or virus in culture. Particulars: for MIC: Staphylococcus aureus, read-out: MRSA (MIC). It counts as cell-based, Staphylococcus aureus. The method, then:
Therefore, increasing the solubility of high generation of nested hexagons may enable more efficient studies in biological media and translate to effective antimicrobial activity. […] In addition, the smaller size of G1 was expected to lead to weaker interaction with bacterial membranes.
(§1) Minimum inhibitory concentrations (MICs) against MRSA.4 The antimicrobial activity of the compounds are tested against Methicillin-resistant S. aureus (MRSA, ATCC 33591). Briefly, a single colony of MRSA bacterium was inoculated in 3 mL TSB medium and allowed to grow overnight at 37 °C. The bacteria culture was then diluted at 1:100 and the bacteria were able to re-grow to mid-logarithmic phase in 6-8 h. Next, 50 µL compounds in 2-fold serially diluted solution with the concentrations of 0.1-25 µg/mL were added the 96-well plate containing 50 µL of bacteria suspension (1 × 10^6 CFU/mL) in each well. Following that, the plate was incubated at 37 °C for 16 h, and the absorption of those wells at 600 nm wavelength was read on a Biotek Synergy H1 microtiter […]
growth of MRSA in 24 h. […]

Data set [2] relates to human red blood cells (hRBCs). The experiment in a line: Hemolytic assay. Particulars: 37 °C, 1 h. It counts as cell-based. How it is done: as §1
growth of MRSA in 24 h. The experiment were repeated at least three times with duplicates each […]
Hemolytic assay.4 The freshly drawn human red blood cells (hRBCs) were washed with 1× PBS buffer multiple times and centrifuged at 3500 rpm for 10 min, until the supernatant became clear. Next, the supernatant was removed, and the RBCs were diluted into 5% v/v suspension. The aliquots of suspension (50 µL) were then incubated with compounds at various concentrations in 2-fold serially diluted solution (50 µL) at 37 °C for 1 h. The mixture was centrifuged at 3500 rpm for 10 min and the supernatant was collected. Following that, 100 µL PBS was added to 30 µL of the supernatant, and the absorbance of the solution at 540 nm was read on a Biotek Synergy H1 plate reader. 2% Triton X-100 was used as the positive control and 1× PBS was used the negative control.
The hemolysis activity was calculated by the formula % hemolysis =
(Abssample-AbsPBS)/(AbsTriton-AbsPBS)×100%. The experiment was repeated at least three times with […]
Conductance measurement on the planar lipid bilayer. The lipids
1,2-dipalmitoyl-sn-glycero-3-phosphatidylglycerol (DPPG, Avanti Polar Lipids) and 1,2-dipalmitoyl-sn-glycero-3-phosphatidylethanolamine (DPPE, Avanti Polar Lipids) were mixed in chloroform (9:1 in molar ratio, 10 mg/mL, 20 µL). […]

The subject of another data set is E. coli. Put plainly: MIC against Gram-negative bacterium E. coli. In kind it is cell-based.
[3] abbreviates: Escherichia coli, read-out: E. coli (MIC).

Each structure is given as a SMILES string. Like-named read-outs stand apart in the source and are kept apart here.

As to `CCCCCCCCCC(=O)N[C@@H](Cc1c[nH]c2ccccc12)C(=O)N[C@H](CC(N)=O)C(=O)N[C@@H](CC(=O)O)C(=O)N[C@@H]1C(=O)NCC(=O)N[C@@H](CCCN)C(=O)N[C@@H](CC(=O)O)C(=O)N[C@H](C)C(=O)N[C@@H](CC(=O)O)C(=O)NCC(=O)N[C@H](CO)C(=O)N[C@@H]([C@H](C)CC(=O)O)C(=O)N[C@@H](CC(=O)c2ccccc2N)C(=O)O[C@@H]1C` [Daptomycin, daptomycin, reference compound], in data set [1] (ATCC 33591), the “MRSA (MIC)” value was 0.5 µg/mL.
With `CCCCCCOc1c(-c2ccc(-c3cc(-c4ccccn4)nc(-c4ccccn4)c3)cc2)c(OCCCCCC)c(-c2ccc(-[n+]3c(-c4ccc(-c5ccc(-c6cc(-c7ccccn7)nc(-c7ccccn7)c6)cc5)cc4)cc(-c4ccc(-[n+]5c(-c6ccc(-c7ccc(-c8ccc(-c9cc(-c%10ccccn%10)nc(-c%10ccccn%10)c9)cc8)cc7)cc6)cc(-c6ccc(C(C)(C)C)cc6)cc5-c5ccc(-c6ccc(-c7ccc(-c8cc(-c9ccccn9)nc(-c9ccccn9)c8)cc7)cc6)cc5)cc4)cc3-c3ccc(-c4ccc(-c5cc(-c6ccccn6)nc(-c6ccccn6)c5)cc4)cc3)cc2)c(OCCCCCC)c1-c1ccc(-c2cc(-c3ccccn3)nc(-c3ccccn3)c2)cc1` [L3], in data set [2], the “Hemolysis (H50)” value is reported as greater than 250. In addition, the MIC (in the data set on E. coli (setting [3]); in data set [1]) was greater than 100 µg/mL each time.
For the compound `CCCCCCOc1c(-c2ccc(-c3cc(-c4ccccn4)nc(-c4ccccn4)c3)cc2)c(OCCCCCC)c(-c2ccc(-[n+]3c(-c4ccc(-c5ccc(-c6cc(-c7ccccn7)nc(-c7ccccn7)c6)cc5)cc4)cc(-c4ccc(C(C)(C)C)cc4)cc3-c3ccc(-c4ccc(-c5cc(-c6ccccn6)nc(-c6ccccn6)c5)cc4)cc3)cc2)c(OCCCCCC)c1-c1ccc(-c2cc(-c3ccccn3)nc(-c3ccccn3)c2)cc1` [L2], the “Hemolysis (H50)” value in data set [2] is greater than 250. The MIC (with E. coli (setting [3]); in data set [1]) was greater than 100 µg/mL in each case.
Turning to `CCCCCCOc1c(-c2ccc(N)cc2)c(OCCCCCC)c(-c2ccc(-c3cc(-c4ccccn4)nc(-c4ccccn4)c3)cc2)c(OCCCCCC)c1-c1ccc(-c2cc(-c3ccccn3)nc(-c3ccccn3)c2)cc1` [L1], the “Hemolysis (H50)” value in data set [2] is listed as greater than 250. In addition, the MIC in the data set with E. coli (Escherichia coli; read-out: E. coli (MIC)) is greater than 100 µg/mL; in data set [1] (MRSA ATCC 33591, TSB medium, 37 °C), greater than 100 µg/mL.

The record behind these values is article PMC5940903, “Supramolecular Kandinsky circles with high antibacterial activity” (Nature Communications, 2018).
